# From patent US8420810B2, “Bicyclic heterocyclic compound” (Ono Pharmaceutical, Co., Ltd., priority 2007, dated 2013)
# Key:
# [1] = Light stability test; type: physicochemical; conditions: 2500 Lux (D65 lamp), 25° C., HPLC
# Protocol: After weighing 5 mg of an evaluation compound, it was put into a test tube made of glass which was then sealed with a stop cock. Said test tube was stored at 25° C. for 11 days or 20 days under irradiation of 2500 Lux (a D65 lamp was used as the light source). The evaluation compound after 11 days or 20 days of irradiation was determined by an HPLC apparatus. Survival rate (%) of the evaluation compound was calculated by the following formula. Survival rate of evaluation compound (%)=amount of evaluation compound after 11 days or 20 days of irradiation (mg)/weighed value of evaluation compound (mg)×100 <HPLC Conditions> • Apparatus: A 1200 series (manufactured by Agilent Technologies, Inc.), • Column: YMC-Pack C4, A-802, 150×4.6 mm I.D., S-5 μm, 120 A (manufactured by YMC), • Mobile phase: A: water, B: acetonitrile, A/B: 35/65, • Column temperature: room temperature, • Flow rate: 1.0 mL/min.
# [2] = Stability test under acidic condition; type: physicochemical; conditions: ethanol solution / Pharmacopoeia first liquid 1 to 1, 37° C., 24 hours, HPLC
# Protocol: A 1 mg/ml ethanol solution of an evaluation compound and the test liquid first liquid of the disintegration test of The Pharmacopoeia of Japan (to be referred to as Pharmacopoeia first liquid hereinafter) were mixed at a ratio of 1 to 1 (0.5 ml for each) and stirred at 37° C. for 24 hours. Amount of the evaluation compound at 0 minute or after 24 hours was determined by an HPLC apparatus. Survival rate (%) of the evaluation compound was calculated by the following formula. Survival rate of evaluation compound (%)=amount of evaluation compound after 24 hours of treatment with Pharmacopoeia first liquid/amount of evaluation compound just after treatment with Pharmacopoeia first liquid×100 <HPLC Conditions> • Apparatus: A 1200 series (manufactured by Agilent Technologies, Inc.), • Column: YMC-Pack C4, A-802, 150×4.6 mm I.D., S-5 μm, 120 A (manufactured by YMC), • Mobile phase: A: water, B: acetonitrile, A/B: 35/65, • Column temperature: room temperature, • Flow rate: 1.0 mL/min.
# [3] = system: Male Wistar rats; test: Water aversive stress model in rats; type: in vivo, rat; conditions: 3 mg/kg, oral once 30 minutes before stress, 60 minutes after loading the water aversive stress
# Protocol: Male Wistar rats of 7 weeks of age were used in the test. A platform of 8.5 cm in diameter and 11 cm in height was arranged in the center of a plastic container (30 cm in length, 45 cm in width, 37 cm in height), and water was filled therein to a depth of about 10 cm. Each rat was put on the platform, and the number of evacuations was counted 5, 30 and 60 minutes thereafter. To the vehicle group, 20% Wellsolve (registered trademark) was orally administered, and an evaluation compound having varied concentrations was orally administered to the evaluation compound group, once 30 minutes before loading the water aversive stress. The dose was set to be 5 ml/kg for both cases.
# [4] = target: T1, human CRF receptor I (Homo sapiens, UniProt P34998); test: Binding assay (125I-CRF, membrane fraction); conditions: 125I-CRF 0.25 nM, membrane fraction of CHO-K1 cells expressing human CRF receptor I, room temperature 2 hours
# T1 construct: expressed in transfected cells; host or cells: CHO-K1
# T1 sequence (P34998 24-415): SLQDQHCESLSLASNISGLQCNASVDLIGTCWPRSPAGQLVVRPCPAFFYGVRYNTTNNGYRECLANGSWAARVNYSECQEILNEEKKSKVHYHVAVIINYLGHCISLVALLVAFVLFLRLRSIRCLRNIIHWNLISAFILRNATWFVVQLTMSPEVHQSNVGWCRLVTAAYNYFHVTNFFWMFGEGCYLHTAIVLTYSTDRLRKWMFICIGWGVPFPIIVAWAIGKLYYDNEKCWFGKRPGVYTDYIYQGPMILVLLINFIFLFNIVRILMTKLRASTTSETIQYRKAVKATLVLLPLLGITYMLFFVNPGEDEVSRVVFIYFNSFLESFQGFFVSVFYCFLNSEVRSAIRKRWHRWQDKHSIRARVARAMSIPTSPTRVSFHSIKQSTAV
# Protocol: The forced-expression cell strain of the human CRF receptor I (parent strain is CHO-K1 cell) was cultured until the cell was confluent and collected with a scraper. The collected cells were washed twice with PBS, and were suspended with an ice-colded binding assay buffer (Tris-HCl (50 mM, pH 7.0), EDTA (2 mM, pH 8.0), and MgCl2 (10 mM)). After fractured with a dounce-type homogenizer, the suspended cells were centrifuged at 10,000 g, and a membrane fraction was collected. The collected membrane fraction was resuspended with a little amount of the binding assay buffer, thereafter diluted with the binding assay buffer so as to have a concentration of 1 mg/mL. The obtained membrane fraction was used for a binding assay.
# ^125I-CRF was diluted with the binding assay buffer so as to have a concentration of 0.5 nM, whereby 50 μL of the diluted ^125I-CRF was added to a siliconized 1.5 mL tube. Next, evaluation compounds diluted at appropriate times, DMSO (for general binding), or 100 μM of CRF (for non-specific binding), was added to a […]. Finally, 50 μL of the membrane fraction was added thereto and the reaction was started (final concentration of ^125I-CRF was 0.25 nM). The tube was incubated at room temperature for 2 hours. After the reaction, the tube was centrifuged at 20,000 g in order to collect the membrane fraction. The supernatant was discarded, and the pellet was washed with an ice-colded PBS/0.01% TritonX-100. A membrane binding count was measured using a y counter. The specific binding count was obtained by subtracting the non-specific count from the measured count.
# [5] = target: T1, human CRF receptor I; test: Receptor antagonistic activity (cyclic AMP assay); type: cell-based; conditions: accumulated cyclic AMP, human/rat CRF stimulation, cells expressing human CRF receptor I, 37° C. 15 minutes
# Protocol: The forced expression cell strain of the human CRF receptor I was cultured at 37° C. under 5% carbon dioxide and 95% air by using a Ham's F-12 medium (F-12 nutrient mixture) containing 10% bovine fetal serum and 1% antibiotic substance-antifungal agent. On the previous day before the cyclic AMP was measured, the cells were inoculated into a 96-well plate in an amount of 1×10^4 cell/well. On the measurement day, the cells were washed twice with a Ham's F-12 medium, whereby a solution of Ham's F-12 medium/1 mM 3-isobutyl-1-methylxanthine (assay medium) (178 μL) was added to each well. After the incubation at 37° C. for 15 minutes, the solutions (2 μL) of evaluation compound in various concentrations were added thereto, or DMSO (2 μL) was added to a CRF group and a blank group. An assay medium (20 μL) containing 10 nM human/rat CRF was added to wells of an evaluation compound group and the CRF group. An assay medium (20 μL) containing 0.00001% acetic acid was added to the blank group. Each group was further incubated at 37° C. for 15 minutes. The supernatant was removed and ice-colded to stop the reaction. Note that the reactions of 2 wells were the same in all reactions. The measurement for accumulated cyclic AMP amount in cells was carried out by using a cyclic AMP Biotrak enzyme immunoassay system (manufactured by GE Healthcare). The accumulated cyclic AMP amounts were calculated by subtracting mean values of corresponding 2 wells in the blank group from that of 2 wells. The IC50 values were calculated with non-linear regression analysis by defining logarithm concentration of the evaluation compound as independent variable and an accumulated cyclic AMP amount as dependent variable.
residual ratio after 20 days [1] [%],residual ratio [2] [%],IC50 [4] [nM],IC50 [5] [nM],SMILES,increase of the number of evacuations for the vehicle group [3]
93,90,,,"CCC(CC)c1cc(C)n2nc(-c3ccc(OC)cc3C)n(C)c(=O)c12 [Example 8(1), 5-(1-ethylpropyl)-2-(4-methoxy-2-methylphenyl)-3,7-dimethylpyrrolo[2,1-f][1,2,4]triazin-4(3H)-one]",
,,4.5,2.1,"CCn1c(-c2ccc(SC)cc2Cl)nn2c(C)cc(C(C)C)c2c1=O [Example 14(2), 2-[2-chloro-4-(methylthio)phenyl]-3-ethyl-5-isopropyl-7-methylpyrrolo[2,1-f][1,2,4]triazin-4(3H)-one]",significantly inhibited
